Here are results for 13 compounds from publication PMC12644462, “A novel radiosensitizer α-sulfoquinovosyl-acylpropanediol (SQAP) inhibits DNA repair pathways and sensitize cells to cancer chemotherapeutic agents” (Scientific Reports, 2025).

Where a name gives a salt, the structure may show the parent alone. Read-outs that look alike come from different tables or passages of the source.

Data set [1] has as its system Chinese hamster V79 cells. Description: Colony formation assay, radio- and chemosensitization. The class given is cell-based. As to the method:
For hypoxia irradiation, cell cultures were placed in Aneropak Kenki system (Mitsubishi Gas Chemical, Tokyo, Japan) with oxygen meter to confirm pO2 below 0.1%. Cells were kept in hypoxia for 3 h before irradiation.

The next data set has as its system CML-6M and STSA-1 cells. Description: Colony formation assay, chemosensitization by SQAP (qualitative). The conditions noted are these: for sensitization of chemotherapeutic agent by SQAP: combined with 30 µM SQAP. The format is cell-based, canine. The protocol: Sensitivity to radiation or chemical reagents was assessed through colony formation assays. After trypsinized single cells were plated to form 20–200 colonies per dish and then treated with SQAP for 3 h in normoxia or hypoxia, the cells were irradiated. For drug sensitivity study, trypsinized cells were plated and then treated with various dosage of testing agents. After seven days of incubation, colonies were fixed, stained and scored. Regression curves were drawn from survival fraction, and D10 values (doses to achieve 10% cell survival) were calculated by Prism 8 (GraphPad software, San Diego, CA, USA) from at least three independent experiments. Oxygen enhancement ratio (OER) and sensitization enhancement ratio (SER) values were calculated from D10 values. OER values were calculated from the D10 value in hypoxia divided by the D10 value in normoxic condition. SER values were calculated from the D10 value without SQAP divided by the D10 value with SQAP.

A further data set deals with CML-6M cells. Description: Colony formation assay, drug sensitivity with SQAP. The class given is cell-based, canine.
In the next data set the test system is STSA-1 cells. Description: Colony formation assay, drug sensitivity with SQAP. The class given is cell-based, canine.

Protocol for CML-6M cells: Sensitivity to radiation or chemical reagents was assessed through colony formation assays. After trypsinized single cells were plated to form 20–200 colonies per dish and then treated with SQAP for 3 h in normoxia or hypoxia, the cells were irradiated. For drug sensitivity study, trypsinized cells were plated and then treated with various dosage of testing agents. After seven days of incubation, colonies were fixed, stained and scored[24]. Regression curves were drawn from survival fraction, and D10 values (doses to achieve 10% cell survival) were calculated by Prism 8 (GraphPad software, San Diego, CA, USA) from at least three independent experiments. Oxygen enhancement ratio (OER) and sensitization enhancement ratio (SER) values were calculated from D10 values. OER values were calculated from the D10 value in hypoxia divided by the D10 value in normoxic condition. SER values were calculated from the D10 value without SQAP divided by the D10 value with SQAP.

Turning to `CO[C@@]12[C@H](COC(N)=O)C3=C(C(=O)C(C)=C(N)C3=O)N1C[C@@H]1N[C@@H]12` [MMC, Mitomycin C], in data set [1] (V79, 10 and 20 µM SQAP), the “effect of SQAP on cytotoxicity of the agent” value (“effect of SQAP” below) was “increased the cytotoxicity”.
Turning to `COS(C)(=O)=O` [MMS, methyl methanesulfonate], in data set [1], the “effect of SQAP” value is recorded as “increased the cytotoxicity”.
In the case of `O=C1c2c(O)ccc(O)c2C(=O)c2c(NCCNCCO)ccc(NCCNCCO)c21` [Mitoxantrone, Mitoxantrone dihydrochloride], in the data set on CML-6M and STSA-1 cells, the “sensitization of chemotherapeutic agent by SQAP” value is “significant sensitization”.
`CC(=O)O[C@H]1C(=O)[C@@]2(C)[C@H]([C@H](OC(=O)c3ccccc3)[C@]3(O)C[C@H](OC(=O)[C@H](O)[C@@H](NC(=O)c4ccccc4)c4ccccc4)C(C)=C1C3(C)C)[C@]1(OC(C)=O)CO[C@@H]1C[C@@H]2O` [Taxol]: the “effect of SQAP” value in data set [1] is “increased the cytotoxicity”.
Regarding `CC[C@@]1(O)C(=O)OCc2c1cc1n(c2=O)Cc2cc3ccccc3nc2-1` [camptothecin, Camptothecin], the “effect of SQAP” value in data set [1] (V79, 10 and 20 µM SQAP) is “increased the cytotoxicity”. In addition, the “change of D10 value of the agent with SQAP treatment” value (“change of D10 value of the agent” below) in data set [1] (V79, P < 0.05) is “significant reduction”.
With `N.N.O=C([O-])C1(C(=O)[O-])CCC1.[Pt+2]` [carboplatin], the “sensitization of chemotherapeutic agent by SQAP” value with CML-6M and STSA-1 cells is listed as “significant sensitization”.
The same measure, in the same setting: under `O=C(O)CCCc1ccc(N(CCCl)CCCl)cc1` [chlorambucil, Chlorambucil] stands “no sensitization”.
For the compound `N.N.[Cl][Pt][Cl]` [cisplatin], the “change of D10 value of the agent” value in data set [1] (V79, P < 0.05) is “significant reduction”.
`COc1cccc2c1C(=O)c1c(O)c3c(c(O)c1C2=O)C[C@@](O)(C(=O)CO)C[C@@H]3O[C@H]1C[C@H](N)[C@H](O)[C@H](C)O1` [doxorubicin, Doxorubicin hydrochloride]: the “sensitization of chemotherapeutic agent by SQAP” value in the data set with CML-6M and STSA-1 cells is “most dramatic sensitization”. Also, the D10 in the data set with CML-6M cells (with 30 µM SQAP) is 8.94 nM; in the data set on CML-6M cells (without SQAP), 18.0 nM; in the data set on STSA-1 cells (STSA-1, with 30 µM SQAP), 4.66 nM; with STSA-1 cells (STSA-1, without SQAP), 8.11 nM.
Regarding `COc1cc([C@@H]2c3cc4c(cc3[C@@H](O[C@@H]3O[C@@H]5CO[C@@H](C)O[C@H]5[C@H](O)[C@H]3O)[C@H]3COC(=O)[C@H]23)OCO4)cc(OC)c1O` [etoposide], the “effect of SQAP” value in data set [1] is listed as “increased the cytotoxicity”.
Regarding `O=NN(CCCl)C(=O)NC1CCCCC1` [lomustine], the “sensitization of chemotherapeutic agent by SQAP” value in the data set on CML-6M and STSA-1 cells was “no sensitization”.
Regarding `C[C@]12C=CC(=O)C=C1CC[C@@H]1[C@@H]2[C@@H](O)C[C@@]2(C)[C@H]1CC[C@]2(O)C(=O)CO` [prednisolone], the “cytotoxicity (D10 not available)” value in the data set with CML-6M and STSA-1 cells (colony formation) is recorded as “low cytotoxicity”. Moreover, the “sensitization of chemotherapeutic agent by SQAP” value in the data set on CML-6M and STSA-1 cells was “no sensitization”.
With bleomycin, in data set [1], the “change of D10 value of the agent” value was “significant reduction”; the “sensitization to bleomycin by SQAP” value was “sensitized and not”.
